A value given as a limit tells only on which side of the number the result lay.

Usually Ki stands for the dissociation constant of the complex between target and ligand, obtained from inhibition or displacement.

One assay relates to Plasma. Put plainly: Anticoagulant activity in human plasma assessed as concentration required to produce 50% increase in activated partial thromboplastin time relative to baseline control. The assay is classed as functional.
The next assay concerns the target Coagulation factor XI (Homo sapiens, UniProt P03951). The assay is described as follows: Inhibition of human F11a using peptide substrate by spectrophotometry.
The nature of assay [1]: Binding affinity to trypsin (unknown origin). The arrangement: species or system Homo sapiens.
The next assay concerns the target T1, Coagulation factor VII (Homo sapiens, UniProt P08709).
T1 sequence (P08709 whole entry): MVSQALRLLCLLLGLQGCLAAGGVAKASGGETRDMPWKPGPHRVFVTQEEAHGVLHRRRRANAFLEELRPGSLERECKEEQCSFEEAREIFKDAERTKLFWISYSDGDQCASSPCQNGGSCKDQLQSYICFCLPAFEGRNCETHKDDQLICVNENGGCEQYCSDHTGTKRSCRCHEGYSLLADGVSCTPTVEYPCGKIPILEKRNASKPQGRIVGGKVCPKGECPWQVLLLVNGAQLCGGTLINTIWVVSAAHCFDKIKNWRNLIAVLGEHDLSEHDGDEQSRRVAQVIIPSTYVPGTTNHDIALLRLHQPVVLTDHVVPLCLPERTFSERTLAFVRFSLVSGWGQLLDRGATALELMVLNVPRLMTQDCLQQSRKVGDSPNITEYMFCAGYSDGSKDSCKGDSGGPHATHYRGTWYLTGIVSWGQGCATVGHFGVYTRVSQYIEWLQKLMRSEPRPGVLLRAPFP
The assay is described as follows: Binding affinity to F7a (unknown origin).

In the next assay the target is Coagulation factor X (Homo sapiens, UniProt P00742). The assay is described as follows: Binding affinity to F10a (unknown origin).
The target in another assay is Prothrombin (Homo sapiens, UniProt P00734). Put plainly: Binding affinity to F2a (unknown origin).

Sequence of Coagulation factor XI (P03951 19-387 limits assumed): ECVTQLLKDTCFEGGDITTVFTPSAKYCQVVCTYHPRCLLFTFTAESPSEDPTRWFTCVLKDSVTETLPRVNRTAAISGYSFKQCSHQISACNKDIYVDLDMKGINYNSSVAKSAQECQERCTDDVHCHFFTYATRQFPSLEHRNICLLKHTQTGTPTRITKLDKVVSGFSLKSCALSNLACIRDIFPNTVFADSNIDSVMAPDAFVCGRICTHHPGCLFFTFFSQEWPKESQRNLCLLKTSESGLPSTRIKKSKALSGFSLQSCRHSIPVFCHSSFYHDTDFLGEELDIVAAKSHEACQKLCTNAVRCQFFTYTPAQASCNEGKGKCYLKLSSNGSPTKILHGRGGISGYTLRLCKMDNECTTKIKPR
Sequence of Coagulation factor XI (P03951 388-625 limits assumed): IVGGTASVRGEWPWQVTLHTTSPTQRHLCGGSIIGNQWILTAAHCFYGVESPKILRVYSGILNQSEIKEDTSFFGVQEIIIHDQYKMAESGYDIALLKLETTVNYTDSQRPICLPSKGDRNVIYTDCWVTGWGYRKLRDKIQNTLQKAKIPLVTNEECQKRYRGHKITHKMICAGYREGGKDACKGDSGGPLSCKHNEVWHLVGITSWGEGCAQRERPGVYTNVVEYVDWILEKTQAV
Sequence of Coagulation factor X (P00742 41-179 limits assumed): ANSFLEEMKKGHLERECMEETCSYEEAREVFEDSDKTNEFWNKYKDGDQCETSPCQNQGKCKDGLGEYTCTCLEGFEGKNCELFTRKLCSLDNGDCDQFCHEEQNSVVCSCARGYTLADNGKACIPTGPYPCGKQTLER
Sequence of Coagulation factor X (P00742 235-488 limits assumed): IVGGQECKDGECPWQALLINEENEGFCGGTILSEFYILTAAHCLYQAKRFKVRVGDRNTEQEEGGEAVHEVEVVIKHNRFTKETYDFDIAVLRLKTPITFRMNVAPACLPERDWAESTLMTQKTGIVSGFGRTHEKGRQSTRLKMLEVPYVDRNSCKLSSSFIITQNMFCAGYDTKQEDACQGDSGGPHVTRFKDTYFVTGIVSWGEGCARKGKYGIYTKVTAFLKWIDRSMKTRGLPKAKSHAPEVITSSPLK

`COC(=O)Nc1ccc2c(c1)CCCCc1cccc(c1)C[C@H](NC(=O)/C=C/c1cc(Cl)ccc1-n1cnnn1)c1nc-2c(Cl)[nH]1`: in the assay on Plasma, the Activity was determined as 34 µM.

On Coagulation factor XI, `COC(=O)Nc1ccc2c(c1)NC(=O)CCc1cccc(n1)C[C@H](NC(=O)/C=C/c1cc(Cl)ccc1-n1cnnn1)c1nc-2c[nH]1` had an inhibition constant Ki of 0.32 nM. For the same compound, the Activity in the assay with Plasma lay in the range of 0.27 to 0.4 µM.

With `COC(=O)Nc1ccc2c(c1)CNC(=O)c1cccc(c1)C[C@H](NC(=O)/C=C/c1cc(Cl)ccc1-n1cnnn1)c1nc-2c[nH]1`, the Ki on Coagulation factor XI was 500 nM.

`COC(=O)Nc1ccc2c(c1)NC(=O)CCc1cc(ccc1F)C[C@H](NC(=O)/C=C/c1cc(Cl)ccc1-n1cnnn1)c1nc-2c[nH]1` returned a Ki at Coagulation factor XI of 0.53 nM. Besides, the Activity in the assay with Plasma worked out at 1.4 µM.

Consider `COC(=O)Nc1ccc2c(c1)CNC(=O)c1ccc(cc1)C[C@H](NC(=O)/C=C/c1cc(Cl)ccc1-n1cnnn1)c1nc-2c[nH]1`, for which the affinity at Coagulation factor XI corresponds to a Ki of 6400 nM.

Consider `COC(=O)Nc1ccc2c(c1)NC(=O)CCc1cccc(c1)C[C@H](NC(=O)/C=C/c1cc(Cl)ccc1-n1cnnn1)c1nc-2c[nH]1`, for which the Ki on Coagulation factor XI came out at 1.5 nM. Besides, the Activity in the assay on Plasma is 2.1 µM.

For the compound `COC(=O)Nc1ccc2c(c1)NC(=O)CCc1nc(ccc1F)C[C@H](NC(=O)/C=C/c1cc(Cl)ccc1-n1cnnn1)c1nc-2c[nH]1`, the inhibition constant (Ki) is 670 nM in assay [1]; 0.02 nM on Coagulation factor XI; 1100 nM at Coagulation factor VII; 1400 nM on Coagulation factor X; greater than 13000 nM at Prothrombin. Besides, the Activity in the assay on Plasma was found to be 0.27 µM.

With `COC(=O)Nc1ccc2c(c1)CNC(=O)c1cccc(c1)C[C@H](NC(=O)/C=C/c1cc(Cl)ccc1-n1cnnn1)c1nc-2c(Cl)[nH]1`, on Coagulation factor XI, the affinity corresponds to a Ki of 92 nM. That is a double-digit nanomolar value.

The compound `COC(=O)Nc1ccc2c(c1)CCCCc1cccc(c1)C[C@H](NC(=O)/C=C/c1cc(Cl)ccc1-n1cnnn1)c1nc-2c[nH]1` showed a Ki at Coagulation factor XI of 17 nM. The Activity in the assay with Plasma was 23 µM.

Values taken from ChEMBL document CHEMBL4043146, “Macrocyclic factor XIa inhibitors” (Bioorg Med Chem Lett, 2017).
